Data on 1 molecule can be found in PMC5587642, “A Novel Benzocoumarin-Stilbene Hybrid as a DNA ligase I inhibitor with in vitro and in vivo anti-tumor activity in breast cancer models” (Scientific Reports, 2017).

Data set [1] has as its system MDA-MB-231 cells. The data set is described as follows: Clonogenic survival assay. Format: cell-based, human. The following applies: 0.75, 1.5 and 3 µM; 24 and 48 h treatment. Here is the method:
Clonogenic survival assay was performed as described previously[16] with modifications. MDA-MB-231 cells (100 cells) were seeded in 12 well plates for 24 h. Cells were then treated with different concentrations of compound 19 (0.75, 1.5 and 3 µM) for 24 and 48 h. After drug treatment, culture medium was replaced with fresh medium and cells were cultured for another 10 days. After 10 days, the cells were washed with PBS carefully and stained with a solution containing 6% glutaraldehyde and 0.5% crystal violet.

The test system of data set [2] is 4T1 mouse breast cancer induced syngeneic breast tumor. Nature of the data set: Syngeneic 4T1 orthotopic breast cancer model. It counts as in vivo, BALB/c mice. The following applies: 50 and 100 mg/kg, oral gavage daily for 32 days. Here is the method:
Animal studies were conducted under the protocol approved by the CSIR-CDRI Institutional Animal Ethics Committee (IAEC approval no. IAEC/2015/03). The in-vivo efficacy studies were performed using BALB/c mice with 4T1 mouse breast cancer induced syngeneic breast tumor model. Mouse tumor model was generated as described by Pulaski et al.[38]. Three different groups of 6 mice each were created for the experiment. Mouse breast cancer cells (4T1) were grown in tissue culture flask upto 70% confluence. Cells were then trypsinized, washed with serum containing medium to quench trypsin activity and then washed and resuspended in PBS. Then cells were injected orthotopically (1 × 10^6 cells in 100 μl PBS) into the mammary fat pad on the right flank of each female BALB/c mouse. Within 2 weeks, palpable tumors were formed and tumor bearing mice were divided randomly into one control and two treatment groups of six mice each. The treatment schedule began on day 16 of the injection and continued for another thirty two days. Compounds were administered by oral gavage once daily at 50 and 100 mg/kg. Tumor volumes were measured every fourth day. The group of vehicle treated animals served as control. The tumor volume, body weight and any behavioral changes in mice were monitored and recorded for the entire duration of the experiment (32 days). Tumor volumes were calculated using the formula (a × b^2)/2, where a, b are two longest perpendicular diameters.

For data set [3], the system named is MDA-MB-231 cells. Nature of the data set: Scratch (migration) assay. It counts as cell-based, human. The note with it: 3 and 6 µM; 12 and 24 h. Here is the method:
The migration capacity of highly metastatic human breast cancer MDA-MB-231 cells was assessed by in-vitro scratch assay as described previously[36] with some modifications. Briefly, cells were plated in 12 well plates and a scratch was created by scraping the cells with a sterile 10 μL pipet tip in the middle of the culture well. After removal of cellular debris, the cells were treated with different concentrations of the test compound. Images of the wound area were captured at 0, 12 and 24 h post-treatment. Wound area was measured by TScratch software and data were expressed as percent (%) open area of control and treated cells.

Data set [4] relates to MDA-MB-231 cells. The data set is described as follows: Comet assay. Format: cell-based, human. The following applies: 12 µM, 48 h. Here is the method: Comet assay was performed as described by Olive et al ^3 with slight modifications. MDA-MB-231 cells treated with compound 19 at 12µM for 48h. The harvested cells were mixed with low melting point agarose and pipet the 200μl of cell suspension onto agarose coated surface of frosted slides. The samples were lysed for overnight at 4 °C after the lysis, electrophoresis performed at 40mA for 30mins. The slides neutralized by water, stained with propidium iodide and images were captured by fluorescence microscope. As shown in Supplementary Fig. 71 the treated samples (B) have increased length of DNA tail as compared to control sample (A). This increase in the tail length of DNA occurs due to DNA damage which is induced by compound 19 in MDA-MB-231 cells.

Data set [5] has as its system MDA-MB-231 cells. The data set is described as follows: Annexin V-FITC/PI apoptosis flow cytometry. It counts as cell-based, human. Here is the method:
Apoptotic cell death of MDA-MB-231 cells upon treatment with compound 19 was measured using a commercially available Annexin V-FITC apoptosis detection kit according to the manufacturer’s protocol (BD Biosciences, San Diego, CA). Briefly, cells were treated with different concentrations (0, 6 and 12 µM) of compound 19 for 24 and 48 h. The cells were then harvested, washed with cold PBS and stained with Annexin V-FITC and propidium iodide (PI) in binding buffer at room temperature in the dark. The stained cells were analyzed by fluorescence-activated cell sorting using a FACS-Calibur instrument (BD Biosciences, San Diego, CA) equipped with CellQuest 3.3 Software.

A short description of data set [6]: Stability in simulated gastric and intestinal fluids. It counts as in vitro ADME. The note with it: 2 µg/mL, up to 180 min. The protocol:
Simulated gastric fluid (SGF) and simulated intestinal fluid (SIF) were prepared according to USP specifications. The compound 19 was incubated in SGF (0.2 g NaCl, 0.32 g pepsin, 0.7 mL HCl and triple distilled water up to 100 mL, pH 1.2) or SIF (0.680 g […], 0.616 g NaOH, 1 g pancreatin and triple distilled water up to 100 mL, pH 6.8). From the stock solution of compound 19 (1 mg/mL), equivalent concentration of 2 μg/mL of compound 19 were added to 1 mL of preincubated reaction mixture of SGF and SIF, at 37 °C in a shaking water bath in triplicate. 100 μL aliquots of sample was collected at each time point at 0, 5, 15, 30 and 60 min for SGF and 0, 5, 15, 30, 60 90, 120 and 180 min for SIF according to the human gastrointestinal transit time, followed by quenching with acetonitrile, then vortexed and centrifuged at 12000 rpm for 5 min. The supernatant was collected and analyzed by HPLC. The graph was plotted between % drug remaining and incubation time for SGF and SIF.

In data set [7] the test system is MDA-MB-231 cells. The data set is described as follows: Cell cycle distribution analysis (PI, FACS). The note with it: 12 µM. Format: cell-based, human. The protocol: For the study of cell cycle distribution, cells were synchronized by serum starvation for 48 h and then grown in serum containing media in the presence or absence of 12 µM compound 19, after 0, 24 and 48 h, cells were harvested, washed twice with cold PBS and fixed with 70% ethanol. The fixed cells were washed with chilled PBS and then stained with 50 μg/mL of Propidium iodide. Cell cycle distribution was analyzed by using FACS-Calibur (BD Biosciences, San Diago, CA).

Where [8] appears, read: 0 h (treated and untreated cells).

Molecules are shown by their SMILES. Entries after “also recorded” stand apart in the source; their conditions may differ.

`COc1cc(/C=C/c2cc(=O)oc3c2ccc2ccccc23)cc(OC)c1` [Compound 19, (E)-4-(3,5-dimethoxystyryl)-2H-benzo[h]chromen-2-one]: in the data set on MDA-MB-231 cells [1], the Colony forming ability result was “inhibited colony forming ability of cells”. In data set [2], the Average body weight result is reported as “no significant change in the average body weight”, the “Breast cancer metastasis to the lungs (4T1 nodules)” value is on record as “marked decrease in breast cancer metastasis to the lungs” and the “Breast tumor growth in-vivo” value is “inhibited breast tumor growth in-vivo in a dose dependent manner; also recorded: arrested tumor progression but could not induce tumor regression”. In the data set on MDA-MB-231 cells [3], the “Cell migration (percent open area)” value was “significantly inhibit the cell migration”. Further, the “DNA tail length (comet assay)” value with MDA-MB-231 cells [4] is on record as “significant increase in the tail length of treated cells”. This molecule had an Apoptosis with MDA-MB-231 cells [5] (6 µM, 24 h) of 10.78 ± 1.21%. The Apoptosis in the data set on MDA-MB-231 cells [5] (6 µM, 48 h) came to 18.68 ± 4.86%. Moreover, the Apoptosis in the data set on MDA-MB-231 cells [5] (12 µM, 24 h) is 16.37 ± 1.18%. Moreover, the Apoptosis in the data set with MDA-MB-231 cells [5] (12 µM, 48 h) amounted to 36.17 ± 3.43%. In addition, the “Stability in SGF (simulated gastric fluid)” value in data set [6] (pH 1.2, 37 °C) is given as 83.19 ± 3.22%. In data set [6] (pH 6.8, 37 °C), the “Stability in SIF (simulated intestinal fluid)” value is recorded as 96.45 ± 0.79%. Further, in the data set with MDA-MB-231 cells [7] (setting [8]), the “Cells in G0/G1 phase” value stood at 75.12 ± 2.23%, the “Cells in G2/M phase” value is 8.71 ± 1.57% and the “Cells in S-phase” value is 16.18 ± 0.65%. Further, in the data set on MDA-MB-231 cells [7] (24 h), the “Cells in G0/G1 phase” value worked out at 57.61 ± 0.1%, the “Cells in G2/M phase” value worked out at 21.48 ± 2.50% and the “Cells in S phase” value amounted to 20.91 ± 2.61%. Moreover, in the data set with MDA-MB-231 cells [7] (48 h), the “Cells in G0/G1 phase” value is listed as 33.78 ± 4.77%, the “Cells in G2/M phase” value is 32.53 ± 0.58% and the “Cells in S phase” value was 33.7 ± 4.2%.
